In patent US9918964B2, “Reducing platelet activation, aggregation and platelet-stimulated thrombosis or blood coagulation by reducing mitochondrial respiration” (priority 2010, dated 2018):
Converted amounts (≈) assume the structure as drawn. “And” between values parts separate entries of the source, which are not always exact repeats. Identical values can stand only once. Like-named read-outs stand apart in the source and are kept apart here.

Columns and labels:
platelets in whole blood = assay: Platelet function testing with the Hemostasis Mechanism Analyzer (HMA): clumping, sticking, clotting in whole blood; assay type: cell-based, human; conditions: for activity at 3300 µg/mL / activity at 5000 µg/mL / activity at 6700 µg/mL / activity at 700 µg/mL / activity at 11700 µg/mL / activity at 23300 µg/mL: Homo sapiens, Platelet; for activity at 700 µg/mL: Dosage (mg/ml) 0.7
[1] = tested on: mitochondria isolated from liver of tilapia (Sarotheridon mossambica); assay type: biochemical
[2] = in vitro whole blood assay, clumping, sticking, clotting
[3] = read-out: % clump time increase
[4] = read-out: % stick time increase
[5] = 0 dosage = 100, read-out: % clot time increase
[6] = 0 dosage = 100, read-out: % clump time increase
[7] = 0 dosage = 100, read-out: % stick time increase
[8] = Dosage (mg/ml) 3.3, 0 dosage = 100, read-out: % clot time increase
[9] = Dosage (mg/ml) 3.3, 0 dosage = 100, read-out: % clump time increase
[10] = Dosage (mg/ml) 3.3, 0 dosage = 100, read-out: % stick time increase
[11] = Dosage (mg/ml) 6.7, 0 dosage = 100, read-out: % clot time increase
[12] = Dosage (mg/ml) 6.7, 0 dosage = 100, read-out: % clump time increase
[13] = Dosage (mg/ml) 6.7, 0 dosage = 100, read-out: % stick time increase
[14] = Dosage (mg/ml) 11.7, 0 dosage = 100, read-out: % clot time increase
[15] = Dosage (mg/ml) 11.7, 0 dosage = 100, read-out: % clump time increase
[16] = Dosage (mg/ml) 11.7, 0 dosage = 100, read-out: % stick time increase
[17] = Dosage (mg/ml) 23.3, 0 dosage = 100, read-out: % clot time increase
[18] = Dosage (mg/ml) 23.3, 0 dosage = 100, read-out: % clump time increase
[19] = Dosage (mg/ml) 23.3, 0 dosage = 100, read-out: % stick time increase
[20] = Dosage (mg/ml) 5, 0 dosage = 100, read-out: % clot time increase
[21] = Dosage (mg/ml) 5, 0 dosage = 100, read-out: % clump time increase
[22] = Dosage (mg/ml) 5, 0 dosage = 100, read-out: % stick time increase

Q: Which “activity in the platelet assays (active agent or inactive)” value (from here on “activity in the platelet assays”) (platelets in whole blood; [2]) does the source give for `N=C(N)NC(N)=S` [Compound 102, carbamimidoylthiourea] here?
A: Its value is “none of them were active agents”.

Q: What does the source list for `C1CCc2nnnn2CC1` [Compound 52, 6,7,8,9-tetrahydro-5H-tetrazolo[1,5-a]azepine]?
A: activity at 3300 µg/mL (platelets in whole blood; read-out: % clot time increase): 105%; activity at 5000 µg/mL (platelets in whole blood; read-out: % clot time increase): 112%; activity at 6700 µg/mL (platelets in whole blood; read-out: % clot time increase): 117%; activity at 3300 µg/mL (platelets in whole blood; [3]): 115%; activity at 5000 µg/mL (platelets in whole blood; [3]): 143%; activity at 6700 µg/mL (platelets in whole blood; [3]): 130%; activity at 3300 µg/mL (platelets in whole blood; [4]): 120%; activity at 5000 µg/mL (platelets in whole blood; [4]): 138%; activity at 6700 µg/mL (platelets in whole blood; [4]): 131%

Q: What does the source list for `OCc1c[nH]c2ccccc12` [Compound 77, 1H-indol-3-ylmethanol]?
A: activity at 700 µg/mL (platelets in whole blood; [5]): 102%; activity at 700 µg/mL (platelets in whole blood; [6]): 95%; activity at 700 µg/mL (platelets in whole blood; [7]): 92%; activity at 3300 µg/mL (platelets in whole blood; [8]): 104%; activity at 3300 µg/mL (platelets in whole blood; [9]): 81%; activity at 3300 µg/mL (platelets in whole blood; [10]): 86%; activity at 6700 µg/mL (platelets in whole blood; [11]): 105%; activity at 6700 µg/mL (platelets in whole blood; [12]): 109%; activity at 6700 µg/mL (platelets in whole blood; [13]): 97%; activity at 11700 µg/mL (platelets in whole blood; [14]): 108%; activity at 11700 µg/mL (platelets in whole blood; [15]): 116%; activity at 11700 µg/mL (platelets in whole blood; [16]): 114%; activity at 23300 µg/mL (platelets in whole blood; [17]): 126%; activity at 23300 µg/mL (platelets in whole blood; [18]): 140%; activity at 23300 µg/mL (platelets in whole blood; [19]): 100%; activity in the platelet assays (active agent or inactive) (platelets in whole blood; [2]): met the criteria for active agents; IC50 (mg/ml) mitochondria inhibition [1]: 82.8 mg/mL (≈ 563 mM)

Q: With `c1cncnc1` [Compound 81, pyrimidine] as the molecule, how does the “activity in the platelet assays” value (platelets in whole blood; [2]) read?
A: The value was “inactive”.

Q: And the “IC50 (mg/ml) mitochondria inhibition” value [1]?
A: Its value is 51.5 mg/mL (≈ 643 mM).

Q: With `c1ccc(-c2cnn[nH]2)cc1` [Compound 2, 5-phenyl-1H-triazole] as the molecule, how does the “activity in the platelet assays” value (platelets in whole blood; [2]) read?
A: The value was “met the criteria for active agents”.

Q: Which “% clot time increase” value (platelets in whole blood) does the source give for 1H-triazole [Compound 99] here?
A: The value was 108% and 103%.

Q: What about the “% clump time increase” value (platelets in whole blood) of the same molecule?
A: Its value is 103% and 99%.

Q: What about the “% stick time increase” value (platelets in whole blood) of the same molecule?
A: Its value is 99% and 104%.

Q: What does the source list for `Cc1ncsc1CCO` [Compound 60, 2-(4-methylthiazol-5-yl)ethanol]?
A: activity at 700 µg/mL (platelets in whole blood; [5]): 100%; activity at 700 µg/mL (platelets in whole blood; [6]): 108%; activity at 700 µg/mL (platelets in whole blood; [7]): 103%; activity at 3300 µg/mL (platelets in whole blood; [8]): 104%; activity at 3300 µg/mL (platelets in whole blood; [9]): 136%; activity at 3300 µg/mL (platelets in whole blood; [10]): 135%; activity at 5000 µg/mL (platelets in whole blood; [20]): 110%; activity at 5000 µg/mL (platelets in whole blood; [21]): 158%; activity at 5000 µg/mL (platelets in whole blood; [22]): 155%; activity at 6700 µg/mL (platelets in whole blood; [11]): 115%; activity at 6700 µg/mL (platelets in whole blood; [12]): 192%; activity at 6700 µg/mL (platelets in whole blood; [13]): 182%

Q: Which “activity in the platelet assays” value (platelets in whole blood; [2]) does the source give for `COc1cc(/C=C/C(=O)/C=C(O)/C=C/c2ccc(O)c(OC)c2)ccc1O` [Compound 85, (1E,4Z,6E)-5-hydroxy-1,7-bis(4-hydroxy-3-methoxy-phenyl)hepta-1,4,6-trien-3-one] here?
A: The value was “none of them were active agents”.

Q: With `OC(c1ccccc1)c1nnn[nH]1` (stereo not shown) [Compound 24, phenyl(1H-tetrazol-5-yl)methanol] as the molecule, how does the activity at 700 µg/mL (platelets in whole blood; [5]) read?
A: The activity at 700 µg/mL was 96%.

Q: And the activity at 700 µg/mL (platelets in whole blood; [6])?
A: The activity at 700 µg/mL was 109%.

Q: And the activity at 700 µg/mL (platelets in whole blood; [7])?
A: The activity at 700 µg/mL was 105%.

Q: What about the activity at 3300 µg/mL (platelets in whole blood; [8]) of the same molecule?
A: The activity at 3300 µg/mL was 105%.

Q: What about the activity at 3300 µg/mL (platelets in whole blood; [9]) of the same molecule?
A: The activity at 3300 µg/mL was 126%.

Q: And the activity at 3300 µg/mL (platelets in whole blood; [10])?
A: Its activity at 3300 µg/mL is 124%.

Q: What about the activity at 5000 µg/mL (platelets in whole blood; [20]) of the same molecule?
A: Its activity at 5000 µg/mL is 113%.

Q: And the activity at 5000 µg/mL (platelets in whole blood; [21])?
A: Its activity at 5000 µg/mL is 156%.

Q: And the activity at 5000 µg/mL (platelets in whole blood; [22])?
A: The activity at 5000 µg/mL was 152%.

Q: And the activity at 6700 µg/mL (platelets in whole blood; [11])?
A: The activity at 6700 µg/mL was 116%.

Q: And the activity at 6700 µg/mL (platelets in whole blood; [12])?
A: Its activity at 6700 µg/mL is 160%.

Q: What about the activity at 6700 µg/mL (platelets in whole blood; [13]) of the same molecule?
A: Its activity at 6700 µg/mL is 143%.

Q: How did the activity at 3300 µg/mL (platelets in whole blood; [8]) turn out when `CCCCC[C@H](O)CC(=O)CCc1ccc(O)c(OC)c1` [Compound 88, (5S)-5-hydroxy-1-(4-hydroxy-3-methoxy-phenyl)decan-3-one] was run?
A: The activity at 3300 µg/mL was 104%.

Q: And the activity at 3300 µg/mL (platelets in whole blood; [9])?
A: The activity at 3300 µg/mL was 107%.

Q: And the activity at 3300 µg/mL (platelets in whole blood; [10])?
A: The activity at 3300 µg/mL was 100%.

Q: And the activity at 6700 µg/mL (platelets in whole blood; [11])?
A: The activity at 6700 µg/mL was 102%.

Q: What about the activity at 6700 µg/mL (platelets in whole blood; [12]) of the same molecule?
A: Its activity at 6700 µg/mL is 106%.

Q: What about the activity at 6700 µg/mL (platelets in whole blood; [13]) of the same molecule?
A: The activity at 6700 µg/mL was 101%.

Q: What about the activity at 11700 µg/mL (platelets in whole blood; [14]) of the same molecule?
A: Its activity at 11700 µg/mL is 104%.

Q: And the activity at 11700 µg/mL (platelets in whole blood; [15])?
A: Its activity at 11700 µg/mL is 111%.

Q: What about the activity at 11700 µg/mL (platelets in whole blood; [16]) of the same molecule?
A: The activity at 11700 µg/mL was 110%.

Q: What about the activity at 23300 µg/mL (platelets in whole blood; [17]) of the same molecule?
A: The activity at 23300 µg/mL was 100%.

Q: What about the activity at 23300 µg/mL (platelets in whole blood; [18]) of the same molecule?
A: Its activity at 23300 µg/mL is 128%.

Q: And the activity at 23300 µg/mL (platelets in whole blood; [19])?
A: The activity at 23300 µg/mL was 132%.

Q: And the “activity in the platelet assays” value (platelets in whole blood; [2])?
A: The value was “none of them were active agents”.

Q: With `Oc1ccc(/C=C/c2cc(O)cc(O)c2)cc1` [Compound 89, 5-[(E)-2-(4-hydroxyphenyl)vinyl] benzene-1,3-diol] as the molecule, how does the “activity in the platelet assays” value (platelets in whole blood) read?
A: The value was “none of them were active agents”.

Q: For `FC(F)(F)c1ccc(-c2nnn[nH]2)cc1` [Compound 18, 5-[4-(trifluoromethyl)phenyl]-1H-tetrazole], which activity at 6700 µg/mL (platelets in whole blood; [11]) is on record?
A: Its activity at 6700 µg/mL is 106%.

Q: And the activity at 6700 µg/mL (platelets in whole blood; [12])?
A: The activity at 6700 µg/mL was 127%.

Q: And the activity at 6700 µg/mL (platelets in whole blood; [13])?
A: The activity at 6700 µg/mL was 106%.

Q: `Cn1cc[nH]c1=S` [Compound 78, 3-methyl-1H-imidazole-2-thione, reference compound] was tested. Which activity at 6700 µg/mL (platelets in whole blood; read-out: % clot time increase) did it give?
A: Its activity at 6700 µg/mL is 110%.

Q: And the activity at 11700 µg/mL (platelets in whole blood; read-out: % clot time increase)?
A: The activity at 11700 µg/mL was 123%.

Q: What about the activity at 23300 µg/mL (platelets in whole blood; read-out: % clot time increase) of the same molecule?
A: Its activity at 23300 µg/mL is 156%.

Q: What about the activity at 6700 µg/mL (platelets in whole blood; [3]) of the same molecule?
A: Its activity at 6700 µg/mL is 124%.

Q: What about the activity at 11700 µg/mL (platelets in whole blood; [3]) of the same molecule?
A: Its activity at 11700 µg/mL is 132%.

Q: What about the activity at 23300 µg/mL (platelets in whole blood; [3]) of the same molecule?
A: The activity at 23300 µg/mL was 216%.

Q: What about the activity at 6700 µg/mL (platelets in whole blood; [4]) of the same molecule?
A: Its activity at 6700 µg/mL is 101%.

Q: And the activity at 11700 µg/mL (platelets in whole blood; [4])?
A: The activity at 11700 µg/mL was 118%.

Q: And the activity at 23300 µg/mL (platelets in whole blood; [4])?
A: Its activity at 23300 µg/mL is 203%.

Q: And the “activity in the platelet assays” value (platelets in whole blood; [2])?
A: The value was “met the criteria for active agents”.
